Results taken from article PMC7808739, “Repurposing existing drugs: identification of SARS-CoV-2 3C-like protease inhibitors” (Journal of Enzyme Inhibition and Medicinal Chemistry, 2021).
Structures can show the parent of a compound that is named as a salt. Where two headings read alike, the source gives them in different places.

Target: SARS-CoV-2 3CLpro (Severe acute respiratory syndrome coronavirus 2, UniProt P0DTD1)
Test: biochemical
Type: biochemical
Conditions: for SARS-CoV-2 3CLpro inhibitor grade in words: grading by IC50 in the IQF peptide assay
[1] = IC50, inhibition of SARS-CoV-2 3CLpro activity
[2] = 0.25 µM protease, 1.25 µM IQF peptide substrate, drugs 0–100 µM preincubated 1 h at 37 °C, then 3 h, N = 3, mean ± SEM, read-out: IC50, inhibition of SARS-CoV-2 3CLpro activity

Molecule	IC50 [1] [µM]	IC50 [2] [µM]	SARS-CoV-2 3CLpro inhibitor grade in words
Oc1ncnc2[nH]ncc12 [Allopurinol]	3.77	–	–
NC(=O)C[S@@+]([O-])C(c1ccccc1)c1ccccc1 [Armodafinil]	–	17.9	–
C=C(c1ccc(C(=O)O)cc1)c1cc2c(cc1C)C(C)(C)CCC2(C)C [Bexarotene]	–	26.5	moderate
CC(=O)Oc1ccc(C(c2ccc(OC(C)=O)cc2)c2ccccn2)cc1 [Bisacodyl]	17.5	–	–
CN(Cc1ccc(C(C)(C)C)cc1)Cc1cccc2ccccc12 [Butenafine hydrochloride]	5.4	–	–
COCC1=C(C(=O)OC(C)OC(=O)OC(C)C)N2C(=O)[C@@H](NC(=O)/C(=N\OC)c3csc(N)n3)[C@H]2SC1 (stereo partly shown) [Cefpodoxime proxetil]	32.4	–	moderate
O=C(O)COCCN1CCN(C(c2ccccc2)c2ccc(Cl)cc2)CC1 (stereo not shown) [Cetirizine]	25.6	–	–
CCCCCCCCCCCCCCCC(=O)O[C@@H]1[C@@H](O)[C@@H](O)[C@@H]([C@H](NC(=O)[C@@H]2C[C@@H](CCC)CN2C)[C@H](C)Cl)O[C@@H]1SC.Cl [Clindamycin palmitate hydrochloride]	–	33.2	moderate
CCC(=O)O[C@]1(C(=O)CCl)[C@@H](C)C[C@H]2[C@@H]3CCC4=CC(=O)C=C[C@]4(C)[C@@]3(F)[C@@H](O)C[C@@]21C [Clobetasol propionate]	–	18.1	–
C=C(CC)C(=O)c1ccc(OCC(=O)O)c(Cl)c1Cl [Ethacrynic acid]	–	1.11	–
CC(C)C[C@H](NC(=O)[C@@H](COC(C)(C)C)NC(=O)[C@H](Cc1ccc(O)cc1)NC(=O)[C@H](CO)NC(=O)[C@H](Cc1c[nH]c2ccccc12)NC(=O)[C@H](Cc1cnc[nH]1)NC(=O)[C@@H]1CCC(=O)N1)C(=O)N[C@@H](CCCNC(=N)N)C(=O)N1CCC[C@H]1C(=O)NNC(N)=O [Goserelin acetate]	12	–	–
COc1ccc2cc([C@H](C)C(=O)O)ccc2c1 [Naproxen]	3.45	–	–
O=C(c1ccc(OCCN2CCCCC2)cc1)c1c(-c2ccc(O)cc2)sc2cc(O)ccc12 [Raloxifene hydrochloride]	–	5.61	–
C=CC[N+]1([C@H]2C[C@H]3[C@@H]4CC[C@H]5C[C@H](O)[C@@H](N6CCOCC6)C[C@]5(C)[C@H]4CC[C@]3(C)[C@H]2OC(C)=O)CCCC1 [Rocuronium bromide]	–	17.5	–
CC(C)(C)NC(=O)[C@@H]1C[C@@H]2CCCC[C@@H]2CN1C[C@@H](O)[C@H](Cc1ccccc1)NC(=O)[C@H](CC(N)=O)NC(=O)c1ccc2ccccc2n1 [Saquinavir mesylate]	9.92	–	–
CO[C@H]1C[C@@H]2CC[C@@H](C)[C@@](O)(O2)C(=O)C(=O)N2CCCC[C@H]2C(=O)O[C@H]([C@H](C)C[C@@H]2CC[C@@H](O)[C@H](OC)C2)CC(=O)[C@H](C)/C=C(\C)[C@@H](O)[C@@H](OC)C(=O)[C@H](C)C[C@H](C)/C=C/C=C/C=C/1C [Sirolimus (Rapamycin), Sirolimus]	–	22.3	–
N[C@@H]1C[C@H]1c1ccccc1 [Tranylcypromine hydrochloride]	8.64	–	–
Colistin sulphate	–	23.2	moderate
